{"source": "paper PMC11272821", "about": "“Mechanistic safety assessment via multi-omic characterisation of systemic pathway perturbations following in vivo MAT2A inhibition” (Archives of Toxicology, 2024)", "origin": "cited, not measured here", "set-up": "method as in Agios Pharmaceuticals, AACR-NCI-EORTC 2019", "conditions": "ref Agios Pharmaceuticals, AACR-NCI-EORTC 2019, cited from earlier work", "data": [{"smiles": "COc1ccc(-c2c(Nc3ccccn3)[nH]c3c(C4=CCCCC4)c(-c4ccccc4)nn3c2=O)cc1", "note": "[AG-270]", "values": [{"measurement": "adverse finding in Phase 1 clinical trial", "setting": "proposed result of UGT1A1 inhibition", "value": "hyperbilirubinemia"}, {"measurement": "dose limiting toxicity in Phase 1 clinical trial", "value": "reversible, acute liver injury"}]}]}
